Test results: publication PMC12085399, “Quantitative in vitro-to-in vivo extrapolation of human adrenergic and trace amine-associated receptor 1 potencies of pre-workout supplement ingredients using physiologically based kinetic modelling-based reverse dosimetry” (Archives of Toxicology, 2025)

Columns and labels:
[1] = Generic human PBK model with oral dosing, simulated venous plasma concentration; conditions: oral dose of 5.7 mg/kg bw, observed data of Rafehi et al. [2019]
Description: The PBK model codes used in this study are presented in the Supplementary data. For the prediction of internal concentrations of the PEA analogues a generic PBK model for humans with oral dosing was used. The PBK model code was adopted from (Jones and Rowland-Yeo [2013]). In general, the body compartments described in the model are: adipose, bone, brain, gut, heart, kidney, liver, lung, muscle, skin, spleen, testes, venous, arterial, plasma and a rest compartment. The concentrations in these compartments were modelled as blood-flow limited, in which it is assumed that the total concentration in the tissue is in equilibrium with the concentration in the systemic circulation at a steady state. The concentration in the circulation is compound-specific and is based on the plasma partition coefficients. The blood flow rate, the tissue volume and the plasma partition coefficients determine the rate of reaching the steady-state (Jones and Rowland-Yeo [2013]). The model was converted to RStudio (version 2023.12.1 Build 402, “Ocean Storm Release”) solving the differential equations with the R rxode2 package (with tidyverse packages). Cliver free was defined as Cliver/Kp liver * Fup instead of Cliver* Fup. […]

[2] = human; ref Faraj et al. [1979]; cited from earlier work

NCCc1ccc(O)cc1 [Tyramine, tyramine]
over-prediction of the Cmax plasma compared to the observed average [1]: 3.78 fold | metabolic clearance observed in humans [2]: 792 L/h
